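Tested at 5 concentrations; 48 h exposure; 96-well plates; endpoints linearly interpolated, else capped at highest concentration. Here, GI50 denotes the concentration required for 50% inhibition of growth. The concentration for full growth arrest is given as TGI.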
Experiments:
Test in all cases: DTP human tumour cell line panel, 48 h
[1] = tested on: KM12 colon
[2] = tested on: OVCAR-3 ovarian
[3] = tested on: LOX IMVI melanoma
[4] = tested on: UO-31 renal
[5] = tested on: U251 CNS
[6] = tested on: 786-0 renal
[7] = tested on: HCT-15 colon
[8] = tested on: MOLT-4 leukemia
[9] = tested on: COLO 205 colon
[10] = tested on: SN12C renal

SMILES | GI50 [1] [µM] | TGI [1] [µM] | GI50 [2] [µM] | TGI [2] [µM] | GI50 [3] [µM] | TGI [3] [µM] | GI50 [4] [µM] | TGI [4] [µM] | GI50 [5] [µM] | TGI [5] [µM] | GI50 [6] [µM] | TGI [6] [µM] | GI50 [7] [µM] | TGI [7] [µM] | GI50 [8] [µM] | TGI [8] [µM] | GI50 [9] [µM] | TGI [9] [µM] | GI50 [10] [µM] | TGI [10] [µM]
COc1c(B(O)O)cccc1-c1nc2c(F)cc3n[nH]c(C)c3c2c2c1CCCC2 | 1.31 | > 50 | 1.48 | > 50 | 0.688 | 4.14 | 0.225 | 3.07 | 1.12 | > 50 | 0.661 | 10.5 | 1.49 | > 50 | 0.272 | > 50 | 1.51 | 5.26 | 0.854 | > 50
NC(=O)c1csc(-c2ccc(CO)o2)n1 |  | > 100 |  | > 100 |  | > 100 |  | > 100 |  | > 100 |  | > 100 |  | > 100 |  | > 100 |  | > 100 |  | > 100
O=C(/C=C/C=C/c1ccc2c(c1)OCO2)N/N=C\c1ccc(O)cc1O | 2.92 | 20.6 | 0.345 | 12.8 | 1.18 | 10.1 | 1.47 | 8.75 | 1.64 | 23 | 2.89 | 11.8 | 0.776 | 21.4 | 1.41 | 18.8 | 2.31 | 13.8 | 2.98 | 16.2
CC(=O)Nc1cc2c3c(cccc3c1)-c1ccccc1-2 | 32.7 | > 100 | 52.2 | > 100 | 38.9 | > 100 | 0.356 | 15.3 | 39.3 | > 100 | 14.2 | 40 | > 100 | > 100 | 5.72 | > 100 | > 100 | > 100 | 0.72 | > 100
COc1cc2c(cc1-c1coc3cc(O)ccc3c1=O)OCO2 |  | > 100 |  | > 100 |  | > 100 |  | 58.4 |  | 45.9 |  | 29.9 |  | 35.6 |  | > 100 |  | > 100 |  | 67.2
CC1=C(C(=O)Nc2ccc(C)cc2)C(c2cccc([N+](=O)[O-])c2)C(C(=O)Nc2ccc(C)cc2)=C(C)N1 |  | 40.2 |  | 95.5 |  | 32.3 |  | > 100 |  | 75.6 |  | > 100 |  | > 100 |  | 38.5 |  | 28.1 |  | 67.4
Nc1n[nH]c2ccc([C@@H]3Nc4ccc5cn[nH]c5c4[C@H]4C5CCC(C5)[C@@H]34)cc12 (stereo not given in full) | 0.47 | 28 | 0.346 | 10.9 | 0.567 | > 81.2 | 1 | > 100 | 0.436 | > 100 | 0.95 | 98.6 | 0.414 | > 100 | 0.446 | > 100 | 0.332 | 3.03 | 0.747 | > 100

From PubChem BioAssay (NCI)
